Earlier results in US10945981B2, “Methods for treating familial adenomatous polyposis” (CANCER PREVENTION PHARMACEUTICALS, INC., priority 2019, dated 2021).

Conditions: in vivo; cited from earlier work

In the case of CSc1ccc(/C=C2/C(C)=C(CC(=O)O)c3cc(F)ccc32)cc1 [sulfide metabolite], the Mean half-life is listed as 16.4 h.
